Patent publication US20060069039A1, “Treatment of dyskinesia” (priority 2002, published 2006)
Structures can show the parent of a compound that is named as a salt.

Tests used:
[1] = cited from earlier work
MPTP-lesioned marmosets = experiment: L-DOPA-induced dyskinesia and parkinsonian disability in the MPTP-lesioned marmoset model of Parkinson's disease; type: in vivo, marmosets (Callithrix jacchuis); settings: topiramate oral plus L-DOPA 15 mg/kg, n=6
From the text: The MPTP-lesioned primate represents the best animal model of Parkinson's disease and L-DOPA-induced dyskinesia, the most common form of dyskinesia encountered in the clinical situation. The pathology, symptomatology and response of symptoms to treatments and production of side effects following treatment are very similar in the MPTP-lesioned primate to those seen in Parkinson's disease patients. Thus, when untreated, MPTP-lesioned primates show parkinsonian symptoms such as reduced range of movement, reduced speed of movement (bradykinesia) and an abnormal, hunched, parkinsonian posture. […] A study was performed on six adult marmosets (Callithrix jacchuis) to assess the ability of topiramate to reduce dyskinesia, specifically L-DOPA-induced dyskinesia. The marmosets were rendered parkinsonian by subcutaneous injection of 2 mg/kg MPTP for 5 consecutive days. […] The degree of activity and disability before and after MPTP treatment were assessed using a combination of scales that measure locomotor activity, mobility, bradykinesia and posture (see below). […] Behavior was assessed for 6 hours post drug administration. […] Data were collected for each one hour time period for severity of dyskinesia and were analyzed with a Wilcoxon matched pairs test (the software used was Prism version 3.0, GraphPad Software Inc). […]

essential tremor = settings: clinical trial; cited from earlier work

Structure (SMILES)	solubility in water ([1]; water)	dyskinesia following topiramate and L-DOPA in comparison to L-DOPA alone (MPTP-lesioned marmosets; Wilcoxon P<0.05 at 0-1 h and 1-2 h, P>0.05 at 2-3 h)	effect on the anti-Parkinsonian action of L-DOPA (parkinsonian disability) (MPTP-lesioned marmosets; Wilcoxon P>0.05)	solubility in alkaline solutions ([1]; alkaline solutions containing sodium hydroxide or sodium phosphate, pH of 9 to 10)	solubility in acetone, chloroform, dimethylsulfoxide and ethanol ([1]; organic solvents)	pH of saturated solution ([1]; saturated solution)	mean improvement in tremor (essential tremor) [%]
CCN(CC)CCNC(=O)c1cc(Cl)c(N)cc1OC [Metoclopramide hydrochloride, 4-amino-5-chloro-N-[2-(diethylamino)ethyl]-2-methoxy benzamide monohydrochloride monohydrate]	freely soluble						
CC1(C)O[C@@H]2[C@@H](CO[C@@]3(COS(N)(=O)=O)OC(C)(C)O[C@@H]23)O1 [Topiramate, 2,3:4,5-bis-O-(1-methylethylidene)-β-D-fructopyranose sulfamate]		less dyskinesia	without major effect	most soluble	freely soluble	6.3	25
